In patent publication US10757944B2, “Ozone treatment for elimination of pathogens” (priority 2016, dated 2020):
Several values for one entry are separate records, joined by “and”; a condition that tells them apart may be missing. Equal entries are not always repeated.

System: total yeast and mold
Assay: Total yeast and mold on homogenized cannabis flower after ozone exposure (3M Petrifilm Rapid Yeast and Mold Count Plate)
Type: cell-based
Settings: for Average CFU/g (all samples tested) of yeast and mold remaining: 0 minutes: 68,000
Procedure: The ability of ozone to reduce fungus using an embodiment of a disclosed pathogen reduction device was also evaluated. In this series of experiments, homogenized cannabis flower with a total yeast and mold bio-burden exceeding 10,000 CFU/g was exposed to ozone using an embodiment of a disclosed pathogen reduction device. 20 gram samples of the cannabis flower were separated into two groups (10 grams a group) and placed on different racks within the pathogen reduction device. One 10 gram sample was placed on an industrial grade aluminum rack with air holes in order to maximize ozone flow and increase the surface area of the flower that would be exposed to ozone. A second 10 gram sample was place directly onto a rack screen (aluminum foil with holes pocked into it); however, because some of the homogenized cannabis flower was finer than the rack screen, some flower from the second 10 gram sample passed through the rack screen and landed on the lowest mesh screen in the device, thereby, creating a third sample for testing.
20 gram samples as described above were exposed to ozone for 0 minutes (control), 20 minutes, 30 minutes, 45 minutes, and 60 minutes at an ozone concentration of 200 ppm. Six 1 gram samples from each treatment time were processed and evaluated using a 3M® Petrifilm® Rapid Yeast and Mold Count Plate and accompanying Product Instructions. The ozone treated samples were homogenized, diluted with buffer (distilled water), and then 1 milliliter suspension samples were dispensed onto 3M® Petrifilm® Rapid Yeast and Mold Count Plates. The plates were incubated at 27° C. for greater than 60 hours in order to quantify the total yeast and mold remaining on the cannabis flower following exposure to ozone. Three of the six 1 gram samples were taken from the flower placed on the industrial grade aluminum rack as detailed above. Two of the 1 gram samples were taken from the flower placed directly on the screen. The final 1 gram sample was collected from the lowest mesh screen in the device where the finest flower collected after falling through the rack screen.

SMILES: O=[O+][O-] [ozone]
- decrease in total yeast and mold bio-burden (200 ppm ozone for 60 minutes): 92%
- average Colony Forming Units/gram after treatment (200 ppm ozone for 60 minutes, dropping from an average of 82,000 CFU/g): 7,000 CFR/g
- Average CFU/g (all samples tested) of yeast and mold remaining (200 ppm ozone, 20 minutes): 18,000 CFU/g
- CFU/g (Test 1) (200 ppm ozone, 20 minutes, Industrial grade aluminum rack (samples 4-6), T0: 25,000, 60,000, 82,000): 19,000 CFU/g and 12,000 CFU/g and 21,000 CFU/g
- CFU/g (Test 2) (200 ppm ozone, 20 minutes, Industrial grade aluminum rack (samples 4-6), T0: 53,000, 140,000, 130,000): 23,000 CFU/g and 18,000 CFU/g and 21,000 CFU/g
- CFU/g (Test 2) (200 ppm ozone, 20 minutes, Lowest mesh screen (sample 1), T0: 61,000): 24,000 CFU/g
- CFU/g (Test 1) (200 ppm ozone, 20 minutes, Lowest mesh screen (sample 1), T0: 77,000): 18,000 CFU/g
- CFU/g (Test 2) (200 ppm ozone, 20 minutes, Rack screen (samples 2-3), T0: 28,000, 77,000): 16,000 CFU/g and 17,000 CFU/g
- CFU/g (Test 1) (200 ppm ozone, 20 minutes, Rack screen (samples 2-3), T0: 30,000, 50,000): 15,000 CFU/g
- Average CFU/g (all samples tested) of yeast and mold remaining (200 ppm ozone, 30 minutes): 17,000 CFU/g
- CFU/g (Test 1) (200 ppm ozone, 30 minutes, Industrial grade aluminum rack (samples 4-6), T0: 25,000, 60,000, 82,000): 16,000 CFU/g and 11,000 CFU/g and 20,000 CFU/g
- CFU/g (Test 2) (200 ppm ozone, 30 minutes, Industrial grade aluminum rack (samples 4-6), T0: 53,000, 140,000, 130,000): 15,000 CFU/g and 14,000 CFU/g and 20,000 CFU/g
- CFU/g (Test 2) (200 ppm ozone, 30 minutes, Lowest mesh screen (sample 1), T0: 61,000): 20,000 CFU/g
- CFU/g (Test 1) (200 ppm ozone, 30 minutes, Lowest mesh screen (sample 1), T0: 77,000): 16,000 CFU/g
- CFU/g (Test 2) (200 ppm ozone, 30 minutes, Rack screen (samples 2-3), T0: 28,000, 77,000): 30,000 CFU/g and 16,000 CFU/g
- CFU/g (Test 1) (200 ppm ozone, 30 minutes, Rack screen (samples 2-3), T0: 30,000, 50,000): 18,000 CFU/g and 13,000 CFU/g
- Average CFU/g (all samples tested) of yeast and mold remaining (200 ppm ozone, 45 minutes): 16,000 CFU/g
- CFU/g (Test 2) (200 ppm ozone, 45 minutes, Lowest mesh screen (sample 1), T0: 61,000): 11,000 CFU/g
- CFU/g (Test 1) (200 ppm ozone, 45 minutes, Lowest mesh screen (sample 1), T0: 77,000): 7,100 CFU/g
- CFU/g (Test 2) (200 ppm ozone, 45 minutes, Rack screen (samples 2-3), T0: 28,000, 77,000): 15,000 CFU/g and 12,000 CFU/g
- CFU/g (Test 1) (200 ppm ozone, 45 minutes, Rack screen (samples 2-3), T0: 30,000, 50,000): 13,000 CFU/g and 11,000 CFU/g
- Average CFU/g (all samples tested) of yeast and mold remaining (200 ppm ozone, 60 minutes): 6,000 CFU/g
- CFU/g (Test 2) (200 ppm ozone, 60 minutes, Lowest mesh screen (sample 1), T0: 61,000): 9,000 CFU/g
- CFU/g (Test 1) (200 ppm ozone, 60 minutes, Lowest mesh screen (sample 1), T0: 77,000): 7,400 CFU/g
- CFU/g (Test 2) (200 ppm ozone, 60 minutes, Rack screen (samples 2-3), T0: 28,000, 77,000): 10,000 CFU/g and 6,300 CFU/g
- CFU/g (Test 1) (200 ppm ozone, 60 minutes, Rack screen (samples 2-3), T0: 30,000, 50,000): 6,000 CFU/g and 7,800 CFU/g
- additional reduction in CFU/g (200 ppm ozone, after the first 20 minutes and up until 45 minutes): 1.1%
- another reduction in CFU/g (200 ppm ozone, between a 45 minute and 60 minute exposure): 14.1%
- yeast and mold across all 6 samples following treatment (200 ppm ozone, from roughly 10^5 CFU/g): below 10,000 CFU/g
- inhibition of fungi by ozone exposure (in words) (Table 4, 200 ppm ozone, 20-60 minutes): strongly inhibited
